Laboratory results as given in US20050148632A1, “Therapeutic agent for intestinal diseases and visceral pain” (priority 2002, published 2005).

Test system: 5-hydroxytryptophan (5-HTP)-induced defecation models of mice
Assay: Effect on 5-hydroxytryptophan (5-HTP)-induced defecation models of mice in vivo
Conditions: male SLC:ICR mice; 30 mg/kg orally, 30 minutes before 10 mg/kg 5-HTP s.c.; stool scored during 30 minutes
Experimental: Effect on 5-hydroxytryptophan (5-HTP)-induced defecation models of mice in vivo:
The tests were conducted by using (R)-3-(2-(2-(4-methylpiperidine-1-yl)-ethyl)pyrrolidine-1-sulfonyl)phenol (synthesized according to a method described in WO 97/48681) known to be a selective 5-HT7 receptor antagonist as test compound 1 by a method of G. J. Sanger et al. (British Journal of Pharmacology, 130: 706-712, 2000).
Male SLC:ICR mice (6 weeks) were placed in a series of 5 stainless steel cages for mice. After the acclimation for one hour or longer, 30 mg/kg of test compound 1 was orally administered to them (n=10). 30 minutes after, 10 mg/5mL/kg of 5-HTP (or 5 mL/kg of physiological saline in a group in which 5-HTP was not used) was subcutaneously administered to the mice . The stool excreted by each mouse during 30 minutes after the administration was observed (the results were scored as follows: 0: normal stool or no defecation, 1: diarrhea or soft stool). The inhibitory rate (%) of test compound 1 was calculated while the score obtained by subtracting the score of the 5-HTP-free group from the score of the 5-HTP group was determined to be 100%.

## CC1CCN(CC[C@H]2CCCN2S(=O)(=O)c2cccc(O)c2)CC1 [test compound 1, (R)-3-(2-(2-(4-methylpiperidine-1-yl)-ethyl)pyrrolidine-1-sulfonyl)phenol]
  control rate (inhibitory rate of 5-HTP-induced diarrhea/soft stool score): 70%
